In patent US11091522B2, “Peptidomimetic macrocycles and uses thereof” (priority 2018, dated 2021):
Read-outs that look alike come from different tables or passages of the source.

Key:
[1] = 4-week multiple-dose GLP toxicity study in rats; assay type: in vivo
Procedure: (§1) The studies provided dose- and exposure-related assessments during both dosing and recovery periods, and the results were analyzed to define the maximum tolerated doses (MTD) and estimate the severely toxic dose for 10% (STD10) of rats and the highest non-severely toxic dose (HNSTD) in monkeys. All gross and microscopic signs of intolerance (e.g., reduced organ weights, sporadic findings of multi-tissue hemorrhage and hepatic necrosis) and changes in serum chemistry parameters were considered as secondary to red blood cell (RBC), platelet and/or white blood cell (WBC) depletions, or anorexia and dehydration in both species.

[2] = system: SJSA1 tumor cell proliferation; assay: Edu incorporation assay in SJSA1 xenograft tumors; assay type: in vivo, mice; conditions: day 9; AP1 BIW days 1, 4, 8; palbociclib QD×8
Text: […]. The tumors were then homogenized and assayed by flow cytometry. […].

p21 = p21 ELISA assay in SJSA-1 cells; assay type: cell-based, human; conditions: SJSA-1 osteosarcoma cells
Procedure: SJSA-1 cells were trypsinized, counted, and seeded at a density of 7500 cells/100 μL/well in 96-well plates one day prior to running the assay. […] 90 μL of the assay media was added to each well. The control wells contained no cells and received 100 μL of the assay media.
10 mM stock solutions of the peptides were prepared in DMSO. […] A DMSO/sterile water (3% DMSO) solution was prepared for use in the control wells. The working stock solution concentration range was 300 μM, 100 μM, 30 μM, 10 μM, 3 μM, 1 μM, 0.3 μM, and 0 μM. Each solution was mixed well at each dilution step using a multichannel pipette. Row H contained the control wells. Wells H1-H3 received 10 μL of the assay media. Wells H4-H9 received 10 μL of the 3% DMSO-water solution. Wells H10-H12 received media alone and contained no cells.
10 μL of a 10× peptide solution was added to the appropriate well to achieve a final concentration in a volume of 100 μL. For example, 10 μL of 300 μM peptide+90 μL of cells in media=30 μM final concentration in 100 μL volume in wells. The final concentration range used was 30 μM, 10 μM, 3 μM, 1 μM, 0.3 μM, and 0 μM.
20 h after incubation, the media was aspirated from the wells. […] The total protein contents of the lysates were measured using a BCA protein detection kit and BSA standards. […]

SW-480 = assay: Cell viability assay (MTT), SW-480; assay type: cell-based; conditions: SW480 cells, colorectal cancer cell line with mutated p53
Procedure: (§2) Cells were trypsinized, counted, and seeded at pre-determined densities in 96-well plates one day prior to conducting the cell viability assay. […] 180 μL of the assay media was added to each well. Control wells were prepared with no cells, and the control wells received 200 μL of media.
(§3) Peptide dilutions were made at room temperature, and the diluted peptide solutions were added to the cells at room temperature. 10 mM stock solutions of the peptides were prepared in DMSO. […] A DMSO/sterile water (3% DMSO) solution was prepared for use in the control well. The working stock solution concentrations ranges were 300 μM, 100 μM, 30 μM, 10 μM, 3 μM, 1 μM, 0.3 μM, and 0 μM. The solutions were mixed well at each dilution step using a multichannel pipette.
(§4) Row H of the plate contained the controls. Wells H1-H3 received 20 μL of assay media. Rows H4-H9 received 20 μL of the 3% DMSO-water vehicle. Wells H10-H12 received media alone control with no cells.
(§5) 20 μL of a 10× concentration peptide stock solution was added to the appropriate well to achieve the final concentration in 200 μL in each well. […]
(§6) The viability of the cells was determined using MTT reagent. The viability of SJSA-1, RKO, RKO-E6, HCT-116 cells was determined on day 3. The viability of MCF7 cells was determined on day 5. The viability of SW-480 cells was determined on day 6. […] Cell viability was analyzed against the DMSO controls.

plasma protein = assay: In vitro plasma protein binding; assay type: in vitro ADME, mouse, rat, dog, monkey, human
[3] = In vitro plasma protein binding; assay type: in vitro ADME, mouse, rat, dog, monkey, human; conditions: for free AP1 fraction: human and monkey plasma
[4] = system: phospho-Rb, phospho-FOXM1, p53, p21
[5] = 4-week multiple-dose GLP toxicity study in monkeys; assay type: in vivo
Procedure: as §1

[6] = Safety pharmacology, cardiac function; assay type: in vivo; conditions: cynomolgus monkeys
MCF7 tumor = assay type: in vivo; conditions: twice-weekly treatment, dose-dependent TGI
Text: SJSA1 harbors DNA amplification of both MDM2 and CDK4 genes, which neighbor one another on chromosome 12q, while MCF7 harbors a deletion of the CDKN2A gene, the product of which is a natural inhibitor of MDM2 and CDK4. […]

MCF7 cells = assay type: cell-based, human; conditions: Palbo 0.0 μM
[7] = system: human osteosarcoma, breast cancer, and melanoma models; assay: Murine xenograft models of human tumors, AP1 single agent; assay type: in vivo
RKO-E6 = assay: Cell viability assay (MTT), RKO-E6; conditions: RKO-E6 cells, p53 suppressed by HPV E6 oncogene
Procedure: as §2, §3, §4, §5, §6

rat bone marrow = assay: In vivo micronucleus assay
[8] = system: bacterial mutagenicity (Ames); assay: Bacterial mutagenicity (Ames)
[9] = Single-dose rat study, clearance and excretion; assay type: in vivo
[10] = Pharmacokinetics of AP1 and palbociclib in non-tumor-bearing nu/nu mice
caspase activation = assay: Apoptosis assay (caspase activation) in SJSA1 cells, combinations; assay type: cell-based, human; conditions: 24 hour pulse treatment with AP1 (followed by CDK4/6 inhibitor where combined)
hERG potassium channels = hERG potassium channels (Homo sapiens, UniProt Q12809); conditions: in vitro
Chain of hERG potassium channels (Q12809 whole entry): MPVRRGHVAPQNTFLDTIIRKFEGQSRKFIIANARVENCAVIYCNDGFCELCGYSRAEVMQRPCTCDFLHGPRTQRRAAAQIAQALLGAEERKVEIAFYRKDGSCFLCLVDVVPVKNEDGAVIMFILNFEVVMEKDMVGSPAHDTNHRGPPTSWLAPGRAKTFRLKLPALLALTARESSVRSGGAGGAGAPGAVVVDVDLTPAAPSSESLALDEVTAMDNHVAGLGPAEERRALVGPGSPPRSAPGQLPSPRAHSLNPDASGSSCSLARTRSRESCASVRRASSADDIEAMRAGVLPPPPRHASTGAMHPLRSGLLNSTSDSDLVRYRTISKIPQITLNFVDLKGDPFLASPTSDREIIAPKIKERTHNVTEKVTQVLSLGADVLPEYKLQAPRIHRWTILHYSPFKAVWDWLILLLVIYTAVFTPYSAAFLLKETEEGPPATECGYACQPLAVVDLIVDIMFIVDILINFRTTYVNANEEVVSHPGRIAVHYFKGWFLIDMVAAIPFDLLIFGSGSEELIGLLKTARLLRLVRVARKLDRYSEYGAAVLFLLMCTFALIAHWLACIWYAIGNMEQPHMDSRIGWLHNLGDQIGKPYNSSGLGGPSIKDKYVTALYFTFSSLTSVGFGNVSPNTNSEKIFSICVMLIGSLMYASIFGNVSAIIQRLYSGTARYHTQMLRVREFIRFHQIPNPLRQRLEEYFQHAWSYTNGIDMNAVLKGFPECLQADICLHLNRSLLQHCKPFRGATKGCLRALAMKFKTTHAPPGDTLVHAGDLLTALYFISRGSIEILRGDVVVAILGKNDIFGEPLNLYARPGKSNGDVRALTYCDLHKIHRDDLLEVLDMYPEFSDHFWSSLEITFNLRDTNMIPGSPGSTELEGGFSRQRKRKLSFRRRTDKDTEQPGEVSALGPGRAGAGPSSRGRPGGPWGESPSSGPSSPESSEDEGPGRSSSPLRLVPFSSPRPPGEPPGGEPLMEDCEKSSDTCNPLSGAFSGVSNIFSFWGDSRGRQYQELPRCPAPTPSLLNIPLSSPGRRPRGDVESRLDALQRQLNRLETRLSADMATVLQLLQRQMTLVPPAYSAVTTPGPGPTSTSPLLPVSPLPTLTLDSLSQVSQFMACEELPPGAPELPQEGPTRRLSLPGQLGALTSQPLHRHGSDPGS

E2F1 mRNA = conditions: SJSA1, following wash-out
[11] = Pharmacokinetic studies after IV administration of AP1; assay type: in vivo, mice; conditions: rats and monkeys
Text: Using qualified liquid chromatography with tandem mass spectrometry (LC-MS-MS) methods for efficacy models and dose range-finding (DRF) studies, and validated methods for GLP safety studies, exposure was characterized in mice at the MED in efficacy models and in rats and monkeys at tolerated and non-tolerated doses in toxicology studies.

[12] = In vitro metabolite profile, cryopreserved hepatocytes; assay type: in vitro ADME, mouse, rat, monkey, human; conditions: similar metabolite profile across species
Caspase 3 = Caspase 3 detection assay in SJSA-1 cells; assay type: cell-based, human; conditions: SJSA-1 osteosarcoma cells
Procedure: One the day of the assay, the media was replaced with fresh RPMI-11% FBS assay media. […] Control wells contained no cells, and received 200 μL of the assay media.
The solutions were serially diluted 33.3 times using sterile water to provide a range of 10× working stock solutions. […] 20 μL of the 10× working stock solutions were added to the appropriate wells. Row H of the plates had control wells. Wells H1-H3 received 20 μL of the assay media. […] Wells H10-H12 received media and had no cells. […] Nutlin-3a was diluted using the same dilution scheme as the peptides.
10 μL of the 10× stock solutions were added to the appropriate wells to achieve the final concentrations in a total volume of 100 μL. […] 48 h after incubation, 80 μL of the media was aspirated from each well. 100 μL of Caspase 3/7Glo assay reagent was added to each well. […] Data were analyzed as Caspase 3 activation over DMSO-treated cells.

[13] = system: human peripheral blood lymphocyte
[14] = nu/nu, mouse, in vivo, 20 mg/kg

## CC(=O)N[C@@H](CC(C)C)C(=O)N[C@H](C(=O)N[C@@H](Cc1ccccc1)C(=O)N[C@]1(C)CCCCCC/C=C\CCC[C@@](C)(C(=O)N[C@@H](C)C(=O)N[C@@H](C)C(=O)N[C@@H](C)C(=O)N[C@@H](C)C(=O)N[C@@H](C)C(=O)N[C@H](C)C(N)=O)NC(=O)[C@H](CC(C)C)NC(=O)[C@H](CCC(N)=O)NC(=O)[C@H](C)NC(=O)[C@H](Cc2c[nH]c3ccccc23)NC(=O)[C@H](Cc2ccc(O)cc2)NC(=O)[C@H](CCC(=O)O)NC1=O)[C@@H](C)O [AP1]
[1]; in vivo, intravenous, rat STD10, 10 mg/kg
  AUC(0-inf): 562 µg·h/mL
[1]; rats, twice-weekly IV, 4 weeks
  severely toxic dose in 10% of the animals (STD10): 10 mg/kg
[2]
  tumor cell proliferation (Edu incorporation, flow cytometry): decreased cell proliferation
p21
  p21 protein: concentration-dependent increase in p21 protein
SW-480
  cell viability: did not affect cell viability
Plasma protein; mouse and rat plasma, up to 250 μM
  fraction unbound: < 0.02
Plasma protein; mouse, rat, dog, monkey, human, plasma
  fraction unbound at 2 μM: 0.02 to 0.08
[3]; AP1 up to 150 μM
  free AP1 fraction: 3-4%
[3]; concentrations >200 μM
  free AP1 fraction: 12-14%
[3]; plasma from hypoalbuminemic patients
  concentration at which a similar rise of free fraction was observed: > 100 µM
[4]; SJSA1, after washout
  p53 and p21: sustained p53 and p21 up-regulation
[4]; SJSA1, single agent and in combination
  p53 and p21: up-regulated p53 and p21
[5]; in vivo, intravenous, monkey HNSTD, 5 mg/kg
  AUC(0-inf): 813 µg·h/mL
[5]; monkeys, mid- and high-dose levels
  significant thrombocytopenia (<100,000×10^6/ml): Only one animal at each of these dose levels developed significant thrombocytopenia
[5]; monkeys, twice-weekly IV, 4 weeks
  highest non-severely toxic dose (HNSTD): 5 mg/kg
[5]; varying doses, recovered upon cessation of dosing, female results
  peripheral blood platelets: significant decrease in peripheral blood platelets
[6]
  effects on cardiac function: No significant adverse findings
MCF7 tumor
  minimum efficacious dose (MED): 5 mg/kg
MCF7 cells; AP1 0.001 μM
  % inhibition: −2.2%
MCF7 cells; AP1 0.003 μM
  % inhibition: −19.2%
MCF7 cells; AP1 0.01 μM
  % inhibition: −7.3%
MCF7 cells; AP1 0.03 μM
  % inhibition: −9.1%
MCF7 cells; AP1 0.1 μM
  % inhibition: 25.0%
MCF7 cells; AP1 0.3 μM
  % inhibition: 62.3%
MCF7 cells; AP1 30 μM
  % inhibition: 100.0%
MCF7 cells; AP1 .0003 μM
  % inhibition: −18.1%
[7]; IV dosages, each xenograft model
  tumor growth inhibition (TGI): Statistically significant tumor growth inhibition
[7]; xenograft tumors
  apoptosis, cleaved PARP, in vivo PD assays: increase in cleaved poly-ADP-ribose polymerase (PARP)
  p21, in vivo PD assays: increased p21
  p53 protein, in vivo PD assays: increased p53 protein
  tumor cell proliferation, in vivo PD assays: decreased tumor cell proliferation
RKO-E6
  concentration at which not cytotoxic: exceeding 30 μM
Rat bone marrow
  in vivo micronucleus: negative
[8]
  bacterial mutagenicity (Ames): negative
[9]
  predominant clearance pathway: hepatobiliary metabolism and elimination
[10]; non-tumor-bearing nu/nu mice
  effect of co-administration on PK: not affected by palbociclib
[10]; [14]
  AUC(0-t): 686 µg·h/mL
  Cmax: 138 µg/mL
Caspase activation
  caspase activation / apoptosis: sustained apoptotic effects
hERG potassium channels
  effects on hERG potassium channels: No significant adverse findings
E2F1 mRNA
  E2F1 mRNA: did not exhibit repression of E2F1 mRNA
[11]
  accumulation following multiple doses: no accumulation was observed
[11]; plateau at highest dose of 4-week monkey study
  dose proportionality of exposure: Exposures generally increased proportionally with dose
[12]
  major biotransformation pathway: Proteolysis
Caspase 3
  cellular caspase activity: increases in cellular caspase activity
[13]
  chromosomal aberrations: negative
